Results published in patent US7932271B2, “Heterocyclic methyl sulfone derivative” (Daiichi Pharmaceutical Co., Ltd., priority 2003, dated 2011).

Key:
[1] = test system: β amyloid protein (Aβ) secreted by E35 cells (human glioma H4 cells transfected with APP751 gene); test: Inhibition of production or secretion of β-amyloid protein (Aβ) in E35 cells, sandwich ELISA of the supernatant; type: cell-based; conditions: 24 hours with test compound, compared to DMSO control cells, read-out: Activity (IC50, concentration at which 50% inhibition of Aβ production was observed)
Protocol: The inhibitory activity against formation of β amyloid protein of the compounds obtained in Examples was tested in the method described bellow.
E35 cells were established by transfecting APP751 gene which is a wild type human β-amyloid protein precursor into human glioma cells (H4 cells).
E35 cells were seeded in 96-well plates and cultured in an incubator of 37° C. by using a Dulbecco's Modified Eagle's Medium containing 10% inactivated fetal bovine serum (10% FBS-DMEM). Twenty-four hours after seeding, a test compound dissolved in DMSO so as to give its concentration to be 2000 times as much as that of the final concentration was added to the medium in an amount of 1/2000 capacity of the culture medium. The cells were cultured for additional twenty-four hours, and then the supernatant was collected. The amount of β amyloid protein (Aβ) secreted in the supernatant was measured by the sandwich enzyme-linked immunosorbent assay (ELISA). Described specifically, a monoclonal antibody 25-1, which recognized Aβ25-35, was immobilized onto a 96-well ELISA plate, followed by the incubation at 4° C. for 16 to 20 hours. After washing with a phosphate buffer (pH 7.4) (PBS), a biotinylated monoclonal antibody MA32-40, which recognized Aβ1-8, was added, and the plate was kept at 4° C. for 2 hours. After the supernatant was removed and the well was washed sufficiently with PBS, alkaline phosphatase-conjugated streptavidin was added to the plate. Absorbance was measured while adding BlouPhos (manufactured by KPL) as a substrate. An amount of Aβ contained in the supernatant was calculated using a calibration curve separately created using Aβ of a known concentration. IC50 of the test compound was presented as the concentration at which 50% inhibition of Aβ production was observed compared to the amount of Aβ of the control cells to which only DMSO was added.
When there is at least 10-times difference between the IC50 and the concentration at which cytotoxicity appears, then the compound is judged as a compound having an inhibitory activity against production or secretion of β amyloid protein.

SMILES	melting point	IC50 [1] [nM]
CS(=O)(=O)Nc1cc(C(c2cc(F)ccc2F)S(=O)(=O)c2ccc(Cl)cc2)c(Cl)cn1 (centres unmarked) [Example 197, N-[5-Chloro-4-[(4-chlorophenylsulfonyl)(2,5-difluorophenyl)methyl]pyridin-2-yl]methanesulfonamide]	220 to 222 °C	< 5
O=S(=O)(c1ccc(Cl)cc1)C(c1cc(F)ccc1F)c1cc(NS(=O)(=O)C(F)(F)F)ncc1Cl (centres unmarked) [Example 276, N-[5-Chloro-4-[(4-chlorophenylsulfonyl)(2,5-difluorophenyl)methyl]pyridin-2-yl]trifluoromethanesulfonamide]	221 to 223 °C	5 to 50
Nc1cc(C(c2cc(F)ccc2F)S(=O)(=O)c2ccc(Cl)nc2)c(Cl)cn1 (centres unmarked) [Example 245, [5-Chloro-4-[(6-chloropyridin-3-ylsulfonyl)(2,5-difluorophenyl)methyl]pyridin-2-yl]amine]	157 to 158 °C	5 to 50
CN(CCO)c1cc(C(c2cc(F)ccc2F)S(=O)(=O)c2ccc(Cl)cc2)c(Cl)cn1 (centres unmarked) [Example 164, 2-[[5-Chloro-4-[(4-chlorophenylsulfonyl)-(2,5-difluorophenyl)methyl]pyridin-2-yl](methyl)amino]ethanol]	88 to 89 °C	< 5
CS(=O)(=O)Nc1cc(C(c2cc(F)ccc2F)S(=O)(=O)c2ccc(F)c(F)c2)c(Cl)cn1 (centres unmarked) [Example 249, N-[5-Chloro-4-[(2,5-difluorophenyl)(3,4-difluorophenylsulfonyl)methyl]pyridin-2-yl]methanesulfonamide]	118 to 120 °C	< 5
Nc1cc(C(c2cc(F)ccc2F)S(=O)(=O)c2ccc(F)c(F)c2)c(Cl)cn1 (centres unmarked) [Example 247, [5-Chloro-4-[(2,5-difluorophenyl)(3,4-difluorophenylsulfonyl)methyl]pyridin-2-yl]amine]	140 to 141 °C	< 5
Nc1cc(C(c2cc(F)ccc2F)S(=O)(=O)c2ccc(Cl)cc2)c(Cl)cn1 (centres unmarked) [Example 196, [5-Chloro-4-[(4-chlorophenylsulfonyl)(2,5-difluorophenyl)methyl]pyridin-2-yl]amine]	147 to 150 °C	< 5
Cn1cnc(S(=O)(=O)Nc2cc(C(c3cc(F)ccc3F)S(=O)(=O)c3ccc(Cl)cc3)c(Cl)cn2)c1 (centres unmarked) [Example 268, N-[5-Chloro-4-[(4-chlorophenylsulfonyl)(2,5-difluorophenyl)methyl]pyridin-2-yl]-1-methyl-1H-imidazole-4-sulfonamide]	294 to 296 °C	< 5
O=C(O)CCc1cc(C(c2cc(F)ccc2F)S(=O)(=O)c2ccc(Cl)cc2)c(Cl)cn1 (centres unmarked) [Example 261, 3-[5-Chloro-4-[(4-chlorophenylsulfonyl)(2,5-difluorophenyl)methyl]pyridin-2-yl]propionic acid]	194 to 196 °C	5 to 50
Nc1cc(C(c2cc(F)ccc2F)S(=O)(=O)c2ccc(Cl)c(F)c2)c(Cl)cn1 (centres unmarked) [Example 251, [5-Chloro-4-[(4-chloro-3-fluorophenylsulfonyl)(2,5-difluorophenyl)methyl]pyridin-2-yl]amine]	159 to 160 °C	< 5
O=C(O)CCc1cc(C(c2cc(F)ccc2F)S(=O)(=O)c2ccc(Cl)cc2)c(F)cn1 (centres unmarked) [Example 254, 3-[4-[(4-Chlorophenylsulfonyl)(2,5-difluorophenyl)methyl]-5-fluoropyridin-2-yl]propionic acid]	89 to 91 °C	50 to 500
COc1cc(S(=O)(=O)C(c2cc(F)ccc2F)c2cc(N)ncc2Cl)ccc1Cl (centres unmarked) [Example 239, [5-Chloro-4-[(4-chloro-3-methoxyphenylsulfonyl)(2,5-difluorophenyl)methyl]pyridin-2-yl]amine]	198 to 200 °C	50 to 500
N#Cc1ccc(S(=O)(=O)C(c2cc(F)ccc2F)c2cc(N)ncc2Cl)cc1 (centres unmarked) [Example 246, 4-[(2-Amino-5-chloropyridin-4-yl)(2,5-difluorophenyl)methylsulfonyl]benzonitrile]	233 to 235 °C	5 to 50
COc1ccc(S(=O)(=O)C(c2cc(F)ccc2F)c2cc(N)ncc2Cl)cc1 (centres unmarked) [Example 240, [5-Chloro-4-[(2,5-difluorophenyl)(4-methoxyphenylsulfonyl)methyl]pyridin-2-yl]amine]	153 to 155 °C	5 to 50
Cc1cnc(N)cc1C(c1cc(F)ccc1F)S(=O)(=O)c1ccc(Cl)cc1 (centres unmarked) [Example 211, [4-[(4-Chlorophenylsulfonyl)(2,5-difluorophenyl)methyl]-5-methylpyridin-2-yl]amine]	188 to 189 °C	< 5

Further lines, results first:

melting point	IC50 [1] [nM]	SMILES
167 to 168 °C	50 to 500	O=S(=O)(c1ccc(Cl)cc1)C(c1ccc(C2OCCO2)cn1)c1cc(F)ccc1F (centres unmarked) [Example 42, 2-[(4-Chlorophenylsulfonyl)-(2,5-difluorophenyl)methyl]-5-(1,3-dioxolan-2-yl)pyridine]
219 to 221 °C	5 to 50	O=S(=O)(c1ccc(Cl)cc1)C(c1cc(F)ccc1F)c1cc(N2CCCS2(=O)=O)ncc1Cl (centres unmarked) [Example 274, 5-Chloro-4-[(4-chlorophenylsulfonyl)(2,5-difluorophenyl)methyl]-2-(1,1-dioxo-1λ^6-isothiazolidin-2-yl)pyridine]
170 to 171 °C	5 to 50	Nc1cc(C(c2cc(F)ccc2F)S(=O)(=O)c2ccc(Cl)s2)c(Cl)cn1 (centres unmarked) [Example 243, [5-Chloro-4-[(5-chlorothiophen-2-ylsulfonyl)(2,5-difluorophenyl)methyl]pyridin-2-yl]amine]
152 to 154 °C	5 to 50	CS(=O)(=O)N(N)c1cc(C(c2cc(F)ccc2F)S(=O)(=O)c2ccc(Cl)cc2)c(Cl)cn1 (centres unmarked) [Example 225, 1-[5-Chloro-4-[(4-chlorophenylsulfonyl)(2,5-difluorophenyl)methyl]pyridin-2-yl]-1-methylsulfonylhydrazine]
126 to 127 °C	50 to 500	O=S(=O)(c1ccc(Cl)cc1)C(c1ccncc1)c1cc(F)ccc1F (centres unmarked) [Example 20, 4-[[(4-Chlorophenyl)sulfonyl]-(2,5-difluorophenyl)methyl]pyridine]
192 to 194 °C	5 to 50	O=S(=O)(c1ccc(Cl)cc1)C(c1cc(F)ccc1F)c1cc(NS(=O)(=O)N2CCCCC2)ncc1Cl (centres unmarked) [Example 270, N-[5-Chloro-4-[(4-chlorophenylsulfonyl)(2,5-difluorophenyl)methyl]pyridin-2-yl]piperidine-1-sulfonamide]
257 °C (dec.)	< 5	O=S(=O)(Cc1ccncc1)Nc1cc(C(c2cc(F)ccc2F)S(=O)(=O)c2ccc(Cl)cc2)c(Cl)cn1 (centres unmarked) [Example 269, N-[5-Chloro-4-[(4-chlorophenylsulfonyl)(2,5-difluorophenyl)methyl]pyridin-2-yl]-1-pyridin-4-ylmethanesulfonamide]
157 to 159 °C	< 5	Nc1cc(C(c2cc(F)ccc2F)S(=O)(=O)c2ccc(F)cc2)c(Cl)cn1 (centres unmarked) [Example 215, [5-Chloro-4-[(2,5-difluorophenyl)-(4-fluorophenylsulfonyl)methyl]pyridin-2-yl]amine]
118 to 120 °C	< 5	CS(=O)(=O)Nc1cc(C(c2cc(C#N)ccc2F)S(=O)(=O)c2ccc(Cl)cc2)c(Cl)cn1 (centres unmarked) [Example 236, N-[5-Chloro-4-[(4-chlorophenylsulfonyl)(5-cyano-2-fluorophenyl)methyl]pyridin-2-yl]methanesulfonamide]
201 to 202 °C	5 to 50	Nc1cc(C(c2cc(F)ccc2F)S(=O)(=O)c2ccc(C(F)(F)F)nc2)c(Cl)cn1 (centres unmarked) [Example 250, [5-Chloro-4-[(2,5-difluorophenyl)(6-trifluoromethylpyridin-3-ylsulfonyl)methyl]pyridin-2-yl]amine]
> 220 °C	< 5	N#Cc1ccc(F)c(C(c2cc(N)ncc2Cl)S(=O)(=O)c2ccc(Cl)cc2)c1 (centres unmarked) [Example 234, 3-[(2-Amino-5-chloropyridin-4-yl)(4-chlorophenylsulfonyl)methyl]-4-fluorobenzonitrile]
160 to 161 °C	5 to 50	O=S(=O)(c1ccc(Cl)cc1)C(c1cc(F)ccc1F)c1ccncc1Cl (centres unmarked) [Example 55, 3-Chloro-4-[(4-chlorophenylsulfonyl)-(2,5-difluorophenyl)methyl]pyridine]
178 to 179 °C	< 5	CS(=O)(=O)Nc1cc(C(c2cc(F)ccc2F)S(=O)(=O)c2ccc(F)cc2)c(Cl)cn1 (centres unmarked) [Example 216, N-[5-Chloro-4-[(2,5-difluorophenyl)-(4-fluorophenylsulfonyl)methyl]pyridin-2-yl]methanesulfonamide]
